Values joined by “and” are separate entries in the source; they are usually repeats but may differ in a detail not shown here. Identical values can stand only once.
Key:
SETFA = assay: Greenhouse test, pre-emergence treatment; format: in vivo, Setaria faberi; conditions: SETFA, application rate 0.25 kg/ha, scale 0 to 100
Text: (§1) The culture containers used were plastic flowerpots containing loamy sand with approximately 3.0% of humus as the substrate. The seeds of the test plants were sown separately for each species.
(§2) For the pre-emergence treatment, the active ingredients, which had been suspended or emulsified in water, were applied directly after sowing by means of finely distributing nozzles. The containers were irrigated gently to promote germination and growth and subsequently covered with transparent plastic hoods until the plants had rooted. This cover caused uniform germination of the test plants, unless this had been impaired by the active ingredients.
(§3) Depending on the species, the plants were kept at 10-25° C. or 20-35° C., respectively.
(§4) The test period extended over 2 to 4 weeks. During this time, the plants were tended, and their response to the individual treatments was evaluated.
(§5) Evaluation was carried out using a scale from 0 to 100. 100 means no emergence of the plants, or complete destruction of at least the aerial moieties, and 0 means no damage, or normal course of growth. A moderate herbicidal activity is given at values of at least 60, a good herbicidal activity is given at values of at least 70, and a very good herbicidal activity is given at values of at least 85.
(§6) The respective stated components a and b, and if appropriate, c were formulated as a 10% by weight strength emulsion concentrate and, with addition of the amount of solvent system, introduced into the spray liquor used for applying the active compound.
(§7) In the examples, the solvent used was water.
(§8) In the examples below, using the method of S. R. Colby (1967) “Calculating synergistic and antagonistic responses of herbicide combinations”, Weeds 15, p. 22ff., the value E, which is expected if the activity of the individual active compounds is only additive, was calculated. E=X+Y−(X·Y/100) where • X=percent activity using active compound a at an application rate A; • Y=percent activity using active compound b at an application rate B; • E=expected activity (in %) by a+b at application rates A+B.
(§9) If the value found experimentally is higher than the value E calculated according to Colby, a synergistic effect is present.

ABUTH = assay: Greenhouse test, pre-emergence treatment; format: in vivo, Abutilon theophrasti
How it was run: (§10)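 Seeds were sown in loamy sand with approximately 3.0% humus, then sprayed at once with actives suspended or emulsified in water. Pots were watered, hooded until rooting, held at 10-25° C. or 20-35° C. by species for 2 to 4 weeks, and scored 0 (no damage) to 100 (no emergence/complete destruction).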

AMARE [1] = assay: Greenhouse test, pre-emergence treatment; format: in vivo, Amaranthus retroflexus; conditions: application rate 0.25 kg/ha, scale 0 to 100
Text: as §1, §2, §3, §4
Evaluation was carried out using a scale from 0 to 100. […]
In the examples below, using the method of S. R. Colby (1967) “Calculating synergistic and antagonistic responses of herbicide combinations”, Weeds 15, p. 22ff., the value E, which is expected if the activity of the individual active compounds is only additive, was calculated. […]
as §9

AVEFA = assay: Greenhouse test, pre-emergence treatment; format: in vivo, Avena fatua; conditions: pre-emergence, pre-emergence
Text: as §1, §2, §3, §4, §5, §6, §7, §8, §9

DIGSA = assay: Greenhouse test, pre-emergence treatment; format: in vivo
BRADC = assay: Greenhouse test, pre-emergence treatment; format: in vivo, Brachiaria decumbens; conditions: pre-emergence, pre-emergence
Text: as §1, §2, §3, §4, §5, §6, §7, §8, §9

PHACA = assay: Greenhouse test, pre-emergence treatment; format: in vivo, Phalaris canariensis; conditions: pre-emergence, pre-emergence
Text: as §1, §2, §3, §4, §5, §6, §7, §8, §9

ELEIN = assay: Greenhouse test, pre-emergence treatment; format: in vivo, Eleusine indica
Text: as §1, §2, §3, §4, §5, §6, §7, §8, §9

ALOMY = assay: Greenhouse test, pre-emergence treatment; format: in vivo, Alopecurus myosuroides; conditions: pre-emergence, pre-emergence
How it was run: as §10

EPHHL = assay: Greenhouse test, pre-emergence treatment; format: in vivo, Euphorbia heterophylla; conditions: Euphorbia heterophylla, pre-emergence, 480 h
How it was run: as §10

IPOHE = assay: Greenhouse test, pre-emergence treatment; format: in vivo, Ipomoea hederacea; conditions: Ipomoea hederacea, 480 h, 60 g ai/ha, read-out: observed % activity 20 DAT
How it was run: as §10

KCHSC = assay: Greenhouse test, pre-emergence treatment; format: in vivo, Kochia scoparia; conditions: pre-emergence, pre-emergence
How it was run: as §10

GERPU = assay: Greenhouse test, pre-emergence treatment; format: in vivo, Geranium pusillum; conditions: Geranium pusillum, pre-emergence, 480 h
How it was run: as §10

SIDRH = assay: Greenhouse test, pre-emergence treatment; format: in vivo, Sida rhombifolia; conditions: Sida rhombifolia, pre-emergence, 480 h, 40 g ai/ha, 20 DAT; read-out: observed % activity
How it was run: as §10

CENCY = assay: Greenhouse test, pre-emergence treatment; format: in vivo; conditions: 480 h, read-out: observed % activity 20 DAT
ANTAR = assay: Greenhouse test, pre-emergence treatment; format: in vivo; conditions: Anthemis arvensis, 480 h, 40 g ai/ha, 20 DAT, read-out: observed % activity
How it was run: as §10

POLCO [2] = assay: Greenhouse test, pre-emergence treatment; format: in vivo, Polygonum convolvulus; conditions: pre-emergence; for observed % activity 20 DAT: POLCO
How it was run: as §10

GALAP = assay: Greenhouse test, pre-emergence treatment; format: in vivo, Galium aparine; conditions: Galium aparine, pre-emergence, 480 h
How it was run: as §10

COMBE = assay: Greenhouse test, pre-emergence treatment; format: in vivo, Commelina benghalensis; conditions: Commelina benghalensis, pre-emergence, 480 h
How it was run: as §10

POLCO [3] = assay: Greenhouse test, post-emergence treatment; format: in vivo, Polygonum convolvulus; conditions: application rate 1.0 kg/ha, scale 0 to 100
Text: as §1
(§11) For the post-emergence treatment, the test plants were first grown to a height of […], depending on the plant habit, and only then treated with the active ingredients which had been suspended or emulsified in water. For this purpose, the test plants were either sown directly and grown in the same containers, or they were first grown separately as seedlings and transplanted into the test containers a few days prior to treatment.
as §3, §4, §5

AMARE [4] = assay: Greenhouse test, post-emergence treatment; format: in vivo, Amaranthus retroflexus; conditions: application rate 1.0 kg/ha, scale 0 to 100
Text: as §1, §11, §3, §4, §5

ECHCG = assay: Greenhouse test, pre-emergence treatment; format: in vivo, Echinocloa crus-galli
Text: as §1, §2, §3, §4, §5, §6, §7, §8, §9

LOLMU = assay: Greenhouse test, pre-emergence treatment; format: in vivo, Lolium multiflorum; conditions: pre-emergence
Text: as §1, §2, §3, §4, §5, §6, §7, §8, §9

SETVI = assay: Greenhouse test, pre-emergence treatment; format: in vivo, Setaria viridis
Text: as §1, §2, §3, §4, §5, §6, §7, §8, §9

[5] = 40 g ai/ha, 20 DAT, read-out: observed % activity
[6] = 60 g ai/ha, read-out: observed % activity 20 DAT
[7] = 80 g ai/ha, 20 DAT, read-out: observed % activity

CCCC(C)c1nc(N)nc(Nc2c(F)c(F)cc(F)c2F)n1 (stereo not drawn) [Example 6, 6-(1-methylbutyl)-N4-(2,3,5,6-tetrafluorophenyl)-1,3,5-triazine-2,4-diamine]
herbicidal activity (SETFA): very good herbicidal activity (a very good herbicidal activity is given at values of at least 85)
herbicidal activity (ABUTH; ABUTH, application rate 0.25 kg/ha, scale 0 to 100): very good herbicidal activity (a very good herbicidal activity is given at values of at least 85)
herbicidal activity (AMARE [1]): very good herbicidal activity (a very good herbicidal activity is given at values of at least 85)

CC(C)N(C(=O)SCC(Cl)=C(Cl)Cl)C(C)C [Tri-allate, triallate]
inhibition at 200 g/ha (AVEFA; Avena fatua, 480 h, 200 g ai/ha, read-out: observed % activity 20 DAT): 45%
inhibition at 400 g/ha (AVEFA; Avena fatua, 480 h, 400 g ai/ha, read-out: observed % activity 20 DAT): 75%
inhibition at 400 g/ha (DIGSA; Digitaria sanguinalis, 480 h, 400 g ai/ha, read-out: observed % activity 20 DAT): 0%
inhibition at 200 g/ha (BRADC; Urochloa decumbens, 480 h, 200 g ai/ha, read-out: observed % activity 20 DAT): 0%
inhibition at 200 g/ha (PHACA; Phalaris canariensis, 480 h, 200 g ai/ha, read-out: observed % activity 20 DAT): 0%
inhibition at 400 g/ha (PHACA; Phalaris canariensis, 480 h, 400 g ai/ha, read-out: observed % activity 20 DAT): 0%
inhibition at 400 g/ha (ELEIN; Eleusine indica, 480 h, 400 g ai/ha, read-out: observed % activity 20 DAT): 0%
inhibition at 400 g/ha (ALOMY; Alopecurus myosuroides, 480 h, 400 g ai/ha, read-out: observed % activity 20 DAT): 5%

O=C(Nc1ccc(F)cc1F)c1cccnc1Oc1cccc(C(F)(F)F)c1 [diflufenican]
inhibition at 40 g/ha (EPHHL; [5]): 20%
inhibition at 60 g/ha (EPHHL; [6]): 15%
inhibition at 60 g/ha (IPOHE): 15%
inhibition at 60 g/ha (KCHSC; Bassia scoparia, 480 h, 60 g ai/ha, read-out: observed % activity 20 DAT): 80%
inhibition at 40 g/ha (GERPU; [5]): 40%
inhibition at 80 g/ha (GERPU; [7]): 50%
inhibition at 60 g/ha (GERPU; [6]): 60%
inhibition at 30 g/ha (ABUTH; Abutilon theophrasti, 480 h, 30 g ai/ha, read-out: observed % activity 20 DAT): 0%
inhibition at 40 g/ha (ABUTH; Abutilon theophrasti, 480 h, 40 g ai/ha, 20 DAT, read-out: observed % activity): 25%
inhibition at 60 g/ha (ABUTH; Abutilon theophrasti, 480 h, 60 g ai/ha, read-out: observed % activity 20 DAT): 0%
inhibition at 80 g/ha (ABUTH; Abutilon theophrasti, 480 h, 80 g ai/ha, 20 DAT, read-out: observed % activity): 50%
inhibition at 40 g/ha (SIDRH): 0%
inhibition at 30 g/ha (CENCY; 30 g ai/ha): 0%
inhibition at 60 g/ha (CENCY; 60 g ai/ha): 0%
inhibition at 40 g/ha (ANTAR): 85%
inhibition at 40 g/ha (POLCO [2]; Fallopia convolvulus, 480 h, 40 g ai/ha, 20 DAT, read-out: observed % activity): 20%
inhibition at 60 g/ha (POLCO [2]; Fallopia convolvulus, 480 h, 60 g ai/ha, read-out: observed % activity 20 DAT): 60%
inhibition at 80 g/ha (GALAP; [7]): 40%
inhibition at 30 g/ha (GALAP; 30 g ai/ha, read-out: observed % activity 20 DAT): 20%
inhibition at 60 g/ha (GALAP; [6]): 25%
inhibition at 80 g/ha (COMBE; [7]): 55%
inhibition at 60 g/ha (COMBE; [6]): 35%

Nc1nc(CC2CC2)nc(Nc2c(F)cc(F)cc2F)n1 [Example 4, 6-(cyclopropylmethyl)-N4-(2,4,6-trifluorophenyl)-1,3,5-triazine-2,4-diamine]
herbicidal activity (POLCO [3]): good herbicidal activity (a good herbicidal activity is given at values of at least 70)
herbicidal activity (AMARE [4]): very good herbicidal activity (a very good herbicidal activity is given at values of at least 85)

CC(c1nc(N)nc(Nc2c(F)c(F)cc(F)c2F)n1)C(C)(C)C (stereo not drawn) [Example 7, N4-(2,3,5,6-tetrafluorophenyl)-6-(1,2,2-trimethylpropyl)-1,3,5-triazine-2,4-diamine]
herbicidal activity (SETFA): very good herbicidal activity (a very good herbicidal activity is given at values of at least 85)
herbicidal activity (ECHCG; ECHCG, application rate 0.25 kg/ha, scale 0 to 100): very good herbicidal activity (a very good herbicidal activity is given at values of at least 85)
herbicidal activity (AMARE [1]): very good herbicidal activity (a very good herbicidal activity is given at values of at least 85)

C#CCN1C(=O)C(F)(F)Oc2cc(F)c(-n3c(=O)n(C)c(=S)n(C)c3=O)cc21 [PPO, trifludimoxazin]
observed % activity 20 DAT (AVEFA; 25 g ai/ha): 0%
observed % activity 20 DAT (AVEFA; 36 g ai/ha): 15%
observed % activity 20 DAT (AVEFA; 50 g ai/ha): 0%
observed % activity 20 DAT (KCHSC; KCHSC, use rate 12.5 g ai/ha, 20 DAT): 25%
observed % activity 20 DAT (KCHSC; use rate 12.5 g ai/ha): 25%
observed % activity 20 DAT (KCHSC; use rate 25 g ai/ha): 85%
observed % activity 20 DAT (DIGSA; 18 g ai/ha): 85%
observed % activity 20 DAT (DIGSA; 36 g ai/ha): 90%
observed % activity 20 DAT (BRADC; 25 g ai/ha): 65%
observed % activity 20 DAT (BRADC; 36 g ai/ha): 25%
observed % activity 20 DAT (PHACA; 18 g ai/ha): 45%
observed % activity 20 DAT (PHACA; 25 g ai/ha): 35%
observed % activity 20 DAT (PHACA; 36 g ai/ha, listed as BAS 850 (PPO)): 70% and 65%
observed % activity 20 DAT (PHACA; use rate 12.5 g ai/ha): 85%
observed % activity 20 DAT (LOLMU; 25 g ai/ha): 0%
observed % activity 20 DAT (LOLMU; 36 g ai/ha): 35%
observed % activity 20 DAT (LOLMU; 50 g ai/ha): 55%
observed % activity 20 DAT (ELEIN; 18 g ai/ha): 55%
observed % activity 20 DAT (ELEIN; 36 g ai/ha): 90%
observed % activity 20 DAT (ALOMY; 25 g ai/ha): 60%
observed % activity 20 DAT (ECHCG; 18 g ai/ha): 0%
observed % activity 20 DAT (SETVI; 18 g ai/ha): 95%
observed % activity 20 DAT (SETVI; 36 g ai/ha): 90%
observed % activity 20 DAT (POLCO [2]; use rate 12.5 g ai/ha, 20 DAT): 0%
observed % activity 20 DAT (POLCO [2]; use rate 25 g ai/ha, 20 DAT): 0%

Source: patent publication US9999222B2, “Herbicidal combination comprising azines” (BASF SE, priority 2014, dated 2018)
